# Laboratory results as given in patent publication US10947366B2, “Hollow mineral tubes comprising essential oils and uses thereof” (TECHNION RESEARCH & DEVELOPMENT FOUNDATION LTD., priority 2015, dated 2021).
# Where two headings read alike, the source gives them in different places.
# Experiments:
# E. coli (ATCC 8739) = assay: Chequerboard antimicrobial susceptibility to pure carvacrol, thymol and their combinations; format: cell-based; conditions: Escherichia coli, ATCC8739
# Method: Bacterial susceptibility to pure carvacrol, thymol and their mixtures was characterized by the standard chequerboard procedure for antimicrobial susceptibility for combination of antimicrobials (Franzot & Casadevall, 1997; Pei, Zhou, Ji, & Xu, 2009).
# Accordingly, in exemplary procedures, stock aqueous emulsions of thymol and carvacrol (at a concentration of 6400 mg L^−1 in MillyQ water, […]) are prepared by ultrasonication (Vibra cell VCX 750, Sonics & Materials Inc., USA) for 3 min at a constant amplitude of 40%, on ice bath using small amounts of Tween-80. […] The plate is sealed with SealPlate® (Excel Scientific Inc., Victorville, CV, US) incubated at 37° C. for 4 h under gentle shacking in a microplate reader (Varioskan Flash, Thermo Scientific, USA). Absorbance measurements are recorded at 600 nm every 3 min. […]
# The MIC of carvacrol and thymol and their combination against E. coli (ATCC 8739) were determined using the standard chequerboard procedure for antimicrobial susceptibility for combination of antimicrobials (Franzot & Casadevall, 1997; Pei et al., 2009).
# FIG. 13A presents characteristic E. coli growth curves in media containing a constant thymol concentration (75 mg L^−1) and varying carvacrol concentrations (0 to 200 mg L^−1). […] While at a lower concentration (100 mg L^−1), a profound lag time of ˜200 min in bacterial growth is recorded. […]
# [1] = at 20° C.-25° C.; cited from earlier work
# E. coli = assay: Agar diffusion assay (Kirby-Bauer disk diffusion) of LDPE-based films; format: cell-based; conditions: dose additivity model
# Method: Fresh LDPE/(HNTs/CV-TY), LDPE/(HNTs/CV) and LDPE/TY films (12 mm in diameter and 150 μm thick) were conditioned at 60° C. for different time intervals to accelerate the release of the EOs from the films. The films were sampled after different durations, and the content of the respective EOs were determined by Fourier-transform infrared spectroscopy in transmission mode. Subsequently, the discs were placed onto the surface of a Luria broth (LB) agar plate seeded with 10^8 CFU ml^−1 of E. coli culture (0.1 mL). […] All tests were performed in triplicates, and at least 15 different specimens are studied for each film type of each. Neat LDPE films were used as a negative control.
# Interactions between CV and TY were assessed based on the results obtained by the agar diffusion assay studies. Two common models of synergistic activity are applied:
# (1) effect additivity (Axelrad, Howard, & McLean, 2002) and (2) dose additivity (Berenbaum, 1978). […] The second model is based on building curves that illustrate various combinations of two antimicrobials that produce the same effect. Antimicrobial doses of the same efficiency are connected by the additivity line that predicts a zero interaction. Deviations from this prediction can be interpreted as antagonism or synergy. […]
# [2] = EO content in films after melt compounding and processing, determined by TGA; format: physicochemical; conditions: pure EO in LDPE film without HNTs, initial 4 %
# Method: (§1) Hybrids were characterized by thermal gravimetric analysis (TGA) using TGA-Q5000 system (TA instruments, USA) at a heating rate of 20° C./min under nitrogen atmosphere, starting at room temperature up to 600° C.
# Table 4 below summarizes the carvacrol and HNTs content in different films (following melt compounding and processing) determined by TGA (initial carvacrol content, pre-processing, was 4 wt % and initial HNTs content was 2 wt %).
# The resulting films were studied by thermal gravimetric analysis (TGA) in order to examine the effect of the HNTs carriers on the residual carvacrol content following the harsh high-temperature melt-compounding and processing of PA. Table 5 summarizes the results of these experiments showing carvacrol content in different carvacrol-containing films, determined by TGA.
# The EOs content and distribution within the LDPE matrix are important parameters, crucial in determining the mechanical and antimicrobial performance of the nanocomposite systems (R. Shemesh et al., 2015). Thus, the total volatile content within the LDPE-based films was investigated using TGA, and the results are summarized in Table 14 showing carvacrol and thymol concentrations in different LDPE-based films as determined by TGA and FTIR spectroscopy.
# [3] = Thermal gravimetric analysis (TGA) of EOs and HNTs/EO hybrids, thermal stability; format: physicochemical; conditions: 20° C./min, nitrogen
# Method: as §1
# Thermal gravimetric analysis (TGA) is performed using TGA-Q5000 system (TA Instruments, USA). Samples are heated under nitrogen atmosphere from room temperature to 600° C. at a heating rate of 20° C. min^−1. The results are analyzed using Universal […] version 4.5A build 4.5.0.5 software.
SMILES,MIC (E. coli (ATCC 8739)) [µg/mL],vapor pressure [1] [mmHg],in-film EO concentration giving 19 mm inhibition zone (E. coli) [%],reduction of EO concentration during high-temperature processing [2] [%],temperature at which weight loss (evaporation) of the EO is completed [3],"MIC (E. coli (ATCC 8739); LB medium, 37° C., 4 h, inhibition = lag time above 200 min, read-out: MIC) [µg/mL]"
"Cc1ccc(C(C)C)cc1O [carvacrol, Carvacrol]",200,0.023,1.5,55,about 165 °C,–
"CC(C)=CCCC(C)=CC=O [citral, Citral]",–,0.22,–,–,–,–
"C=CC(C)(O)CCC=C(C)C (centres unmarked) [linalool, Linalool]",–,0.17,–,–,–,–
"Cc1ccc(C(C)C)c(O)c1 [thymol, Thymol]",–,0.002,1.4,35,–,300
